The values below come from patent publication US12202835B2, “Substituted aromatic ring-linked dioxinoquinazolines and dioxinoquinolines as kinase inhibitors” (BEIJING SCITECH-MQ PHARMACEUTICALS LIMITED, priority 2018, dated 2025).

Common to all, as to assay type: biochemical
The target in one assay is TRKA kinase (Homo sapiens (Human), UniProt P04629). The assay can be described thus: Assay of small molecular compounds for inhibiting the activity of TRKA kinase (LANCE TR-FRET). A digest of the protocol: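 LANCE TR-FRET with ULight-TK peptide; compounds pre-incubated 5 min with TRKA (2× solution 2 nM), then substrate/ATP added (4× mix: 400 nM peptide, 40 μM ATP). Reaction 60 min at room temperature in dark, 1% DMSO final; stopped, detection developed 60 min, signal read.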
Chain of TRKA kinase (P04629 33-796): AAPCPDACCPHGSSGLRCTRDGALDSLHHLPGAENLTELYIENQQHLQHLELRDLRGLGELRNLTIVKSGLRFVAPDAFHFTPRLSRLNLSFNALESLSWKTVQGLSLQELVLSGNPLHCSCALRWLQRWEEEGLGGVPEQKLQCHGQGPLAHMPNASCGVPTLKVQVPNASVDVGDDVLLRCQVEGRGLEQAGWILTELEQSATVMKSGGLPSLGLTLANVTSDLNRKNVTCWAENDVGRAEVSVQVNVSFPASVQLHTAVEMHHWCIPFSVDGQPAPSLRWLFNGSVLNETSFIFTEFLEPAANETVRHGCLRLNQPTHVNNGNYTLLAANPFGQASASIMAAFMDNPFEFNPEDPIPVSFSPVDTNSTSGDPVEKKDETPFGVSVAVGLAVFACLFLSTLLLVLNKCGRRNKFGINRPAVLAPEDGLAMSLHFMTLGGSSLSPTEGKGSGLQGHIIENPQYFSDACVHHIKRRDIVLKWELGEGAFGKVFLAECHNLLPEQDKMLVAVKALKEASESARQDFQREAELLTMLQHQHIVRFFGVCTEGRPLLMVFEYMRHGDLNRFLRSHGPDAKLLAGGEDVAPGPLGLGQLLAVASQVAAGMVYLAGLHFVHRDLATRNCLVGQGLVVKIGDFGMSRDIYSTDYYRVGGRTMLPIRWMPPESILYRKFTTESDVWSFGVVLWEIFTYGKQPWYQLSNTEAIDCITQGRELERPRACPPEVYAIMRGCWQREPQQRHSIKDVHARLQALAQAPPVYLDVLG
(In general: TR-FRET usually uses a lanthanide donor and a delayed reading to cut background.)

For a further assay, the target named is MER kinase (Homo sapiens (Human), UniProt Q12866). The assay can be described thus: Assay of small molecular compounds for inhibiting the activity of MER kinase (LANCE TR-FRET). In a few lines:
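MER kinase preincubated 5 min at RT with compound (11 points, 0.042-2500 nM final), then ULight-poly GT and ATP added (4× stocks 200 nM and 20 μM) for 60 min at RT, 1% DMSO. Phosphorylation detected by LANCE TR-FRET; IC50 from % inhibition versus controls.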

The target in the next assay is VEGFR-2 kinase (Homo sapiens (Human), UniProt P35968). Kind of assay: Assay of small molecular compounds for inhibiting the activity of VEGFR-2 kinase (LANCE TR-FRET). The settings on record: read-out: VEGFR2 IC50. A digest of the protocol: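 LANCE TR-FRET with human VEGFR-2 (2× stock 0.5 nM) preincubated 30 min with compound (final 2500 to 0.042 nM, 11-point 3-fold), then ULight-JAK-1 (Tyr1023) peptide/ATP added (4× stocks 200 nM/40 μM). Reaction 60 min room temperature, 4% DMSO; IC50 from inhibition-rate curve.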
Chain of VEGFR-2 kinase (P35968 20-1356): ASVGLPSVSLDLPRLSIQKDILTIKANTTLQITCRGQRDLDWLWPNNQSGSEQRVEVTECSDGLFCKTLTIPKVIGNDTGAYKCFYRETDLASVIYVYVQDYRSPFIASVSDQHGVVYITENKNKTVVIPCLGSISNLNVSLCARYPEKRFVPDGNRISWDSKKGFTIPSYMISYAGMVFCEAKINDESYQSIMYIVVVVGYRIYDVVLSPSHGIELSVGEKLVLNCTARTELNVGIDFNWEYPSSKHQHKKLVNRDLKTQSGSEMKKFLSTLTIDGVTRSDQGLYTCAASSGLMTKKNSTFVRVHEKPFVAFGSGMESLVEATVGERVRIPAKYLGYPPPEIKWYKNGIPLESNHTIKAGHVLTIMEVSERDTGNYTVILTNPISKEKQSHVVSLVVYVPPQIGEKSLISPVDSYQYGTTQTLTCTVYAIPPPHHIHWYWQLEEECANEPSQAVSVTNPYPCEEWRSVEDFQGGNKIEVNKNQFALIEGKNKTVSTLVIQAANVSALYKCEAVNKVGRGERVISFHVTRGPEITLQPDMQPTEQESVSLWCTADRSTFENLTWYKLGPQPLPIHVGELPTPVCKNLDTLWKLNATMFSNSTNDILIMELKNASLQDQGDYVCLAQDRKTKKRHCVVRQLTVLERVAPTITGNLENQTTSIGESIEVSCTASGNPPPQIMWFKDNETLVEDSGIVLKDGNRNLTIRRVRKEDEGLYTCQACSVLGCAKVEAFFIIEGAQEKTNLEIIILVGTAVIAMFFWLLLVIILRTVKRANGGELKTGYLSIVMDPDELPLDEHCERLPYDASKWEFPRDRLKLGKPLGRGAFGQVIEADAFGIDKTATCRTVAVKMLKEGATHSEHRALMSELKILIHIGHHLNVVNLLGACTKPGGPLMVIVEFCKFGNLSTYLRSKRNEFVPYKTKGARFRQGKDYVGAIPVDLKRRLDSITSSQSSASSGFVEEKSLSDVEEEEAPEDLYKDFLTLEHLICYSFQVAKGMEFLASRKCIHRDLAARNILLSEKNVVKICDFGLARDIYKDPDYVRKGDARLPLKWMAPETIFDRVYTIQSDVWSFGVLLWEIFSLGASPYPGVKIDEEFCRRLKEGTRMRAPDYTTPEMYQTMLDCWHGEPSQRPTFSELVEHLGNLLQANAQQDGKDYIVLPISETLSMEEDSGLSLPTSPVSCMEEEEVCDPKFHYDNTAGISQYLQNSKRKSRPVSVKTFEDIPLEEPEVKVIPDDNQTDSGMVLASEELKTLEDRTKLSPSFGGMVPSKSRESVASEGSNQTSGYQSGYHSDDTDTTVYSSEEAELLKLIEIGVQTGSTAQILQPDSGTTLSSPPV

The structures appear in SMILES notation.

Chain of MER kinase (Q12866 21-999): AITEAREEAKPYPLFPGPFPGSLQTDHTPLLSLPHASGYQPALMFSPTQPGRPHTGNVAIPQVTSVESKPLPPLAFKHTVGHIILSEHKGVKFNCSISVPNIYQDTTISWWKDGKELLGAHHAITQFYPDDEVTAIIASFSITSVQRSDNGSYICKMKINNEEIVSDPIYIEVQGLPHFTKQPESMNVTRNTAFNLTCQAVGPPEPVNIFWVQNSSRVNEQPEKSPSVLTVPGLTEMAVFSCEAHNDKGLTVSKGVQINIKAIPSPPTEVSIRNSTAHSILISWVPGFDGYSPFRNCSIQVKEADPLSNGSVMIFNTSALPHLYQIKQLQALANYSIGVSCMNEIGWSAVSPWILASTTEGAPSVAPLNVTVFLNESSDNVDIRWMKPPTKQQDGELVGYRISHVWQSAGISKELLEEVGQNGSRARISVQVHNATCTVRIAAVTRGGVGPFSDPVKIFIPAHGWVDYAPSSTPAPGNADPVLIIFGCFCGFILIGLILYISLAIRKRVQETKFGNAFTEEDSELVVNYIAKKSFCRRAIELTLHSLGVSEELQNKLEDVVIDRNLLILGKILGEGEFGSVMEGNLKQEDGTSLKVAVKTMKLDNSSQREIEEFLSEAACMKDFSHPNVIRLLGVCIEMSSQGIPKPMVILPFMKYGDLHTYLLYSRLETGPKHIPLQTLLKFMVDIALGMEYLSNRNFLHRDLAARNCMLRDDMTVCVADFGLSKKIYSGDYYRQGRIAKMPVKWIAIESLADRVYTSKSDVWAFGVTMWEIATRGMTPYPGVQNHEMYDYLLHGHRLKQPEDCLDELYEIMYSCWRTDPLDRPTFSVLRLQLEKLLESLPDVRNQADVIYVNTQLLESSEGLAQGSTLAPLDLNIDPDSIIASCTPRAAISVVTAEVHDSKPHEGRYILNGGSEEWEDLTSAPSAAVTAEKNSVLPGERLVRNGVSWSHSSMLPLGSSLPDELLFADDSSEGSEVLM

In the case of `CC(C)n1cc(C(=O)Nc2ccc(Oc3ccnc4cc(OCCCN5CCC(C)(C)CC5)c5c(c34)OCCO5)c(F)c2)c(=O)n(-c2ccc(F)cc2)c1=O` [Example 92, N-(3-fluoro-4-((5-(3-(4,4-dimethylpiperidin-1-yl)propoxy)-2,3-dihydro-[1,4]dioxino[2,3-f]quinolin-10-yl)oxy)phenyl)-3-(4-fluorophenyl)-1-isopropyl-2,4-dioxo-1,2,3,4-tetrahydropyrimidine-5-carboxamide], the concentration for half-maximal inhibition (IC50) against TRKA kinase was under 50 nM; on MER kinase, at most 50 nM; at VEGFR-2 kinase, 500 to 5000 nM.

For the molecule `COc1cc2nccc(Oc3ccc(NC(=O)c4cn(CCO)c(=O)n(-c5ccc(F)cc5)c4=O)cc3F)c2c2c1OCCO2` [Example 45, N-(3-fluoro-4-((5-methoxy-2,3-dihydro-[1,4]dioxino[2,3-f]quinolin-10-yl)oxy)phenyl)-3-(4-fluorophenyl)-1-(2-hydroxyethyl)-2,4-dioxo-1,2,3,4-tetrahydropyrimidine-5-carboxamide], the results for the IC50 at TRKA kinase, against MER kinase and at VEGFR-2 kinase were 50 to 500 nM, at most 50 nM and 500 to 5000 nM, respectively.

For the molecule `CCOc1ccn(-c2ccc(F)cc2)c(=O)c1C(=O)Nc1ccc(Oc2ccnc3cc(OCCO)c4c(c23)OCCO4)c(F)c1` [Example 53, N-(4-((5-(2-hydroxyethoxy)-2,3-dihydro-[1,4]dioxino[2,3-f]quinolin-10-yl)oxy)-3-fluorophenyl)-4-ethoxy-1-(4-fluorophenyl)-2-oxo-1,2-dihydropyridine-3-carboxamide], the IC50 on TRKA kinase is under 50 nM; on MER kinase, at most 50 nM; at VEGFR-2 kinase it was at most 50 nM.

With `CCOc1ccn(-c2ccc(F)cc2)c(=O)c1C(=O)Nc1ccc(Oc2ccnc3cc(OC4COC4)c4c(c23)OCCO4)c(F)c1` [Example 64, N-(4-((5-((oxetan-3-yl)oxy)-2,3-dihydro-[1,4]dioxino[2,3-f]quinolin-10-yl)oxy)-3-fluorophenyl)-4-ethoxy-1-(4-fluorophenyl)-2-oxo-1,2-dihydropyridine-3-carboxamide], the values for the half-inhibitory concentration (IC50) on TRKA kinase, against MER kinase and on VEGFR-2 kinase were under 50 nM, at most 50 nM and 50 to 500 nM, respectively.

Consider `CN1CCN(CCCOc2cc3nccc(Oc4ccc(NC(=O)c5cn(C)c(=O)n(-c6ccc(F)cc6)c5=O)cc4F)c3c3c2OCCO3)CC1` [Example 74, N-(3-fluoro-4-((5-(3-(4-methylpiperazin-1-yl)propoxy)-2,3-dihydro-[1,4]dioxino[2,3-f]quinolin-10-yl)oxy)phenyl)-3-(4-fluorophenyl)-1-methyl-2,4-dioxo-1,2,3,4-tetrahydropyrimidine-5-carboxamide], for which the half-maximal inhibitory concentration (IC50) was under 50 nM against TRKA kinase, at most 50 nM at MER kinase and at most 50 nM on VEGFR-2 kinase.

Take `CC(C)n1cc(C(=O)Nc2ccc(Oc3ccnc4cc(OCCO)c5c(c34)OCCO5)c(F)c2)c(=O)n(-c2ccc(F)cc2)c1=O` [Example 78, N-(3-fluoro-4-((5-(2-hydroxyethoxy)-2,3-dihydro-[1,4]dioxino[2,3-f]quinolin-10-yl)oxy)phenyl)-3-(4-fluorophenyl)-1-isopropyl-2,4-dioxo-1,2,3,4-tetrahydropyrimidine-5-carboxamide]: the 50% inhibitory concentration (IC50) against TRKA kinase is under 50 nM; on MER kinase it was at most 50 nM; at VEGFR-2 kinase, 500 to 5000 nM.

Regarding `CC(C)Oc1cc2nccc(Oc3ccc(NC(=O)c4cn(C)c(=O)n(-c5ccc(F)cc5)c4=O)cc3F)c2c2c1OCCO2` [Example 88, N-(3-fluoro-4-((5-isopropoxy-2,3-dihydro-[1,4]dioxino[2,3-f]quinolin-10-yl)oxy)phenyl)-3-(4-fluorophenyl)-1-methyl-2,4-dioxo-1,2,3,4-tetrahydropyrimidine-5-carboxamide], the IC50 at TRKA kinase is 50 to 500 nM; against MER kinase, at most 50 nM; on VEGFR-2 kinase it was 500 to 5000 nM.

`CCOc1ccn(-c2ccc(F)cc2)c(=O)c1C(=O)Nc1ccc(Oc2ccnc3cc(OCCCN(C)CCOC)c4c(c23)OCCO4)c(F)c1` [Example 70, N-(4-((5-(3-((2-methoxyethyl)(methyl)amino)propoxy)-2,3-dihydro-[1,4]dioxino[2,3-f]quinolin-10-yl)oxy)-3-fluorophenyl)-4-ethoxy-1-(4-fluorophenyl)-2-oxo-1,2-dihydropyridine-3-carboxamide]: the IC50 at TRKA kinase is under 50 nM; at MER kinase, at most 50 nM; at VEGFR-2 kinase, at most 50 nM.

For `CCOc1ccn(-c2ccc(F)cc2)c(=O)c1C(=O)Nc1ccc(Oc2ccnc3cc(OCC#N)c4c(c23)OCCO4)c(F)c1` [Example 56, N-(4-((5-(cyanomethoxy)-2,3-dihydro-[1,4]dioxino[2,3-f]quinolin-10-yl)oxy)-3-fluorophenyl)-4-ethoxy-1-(4-fluorophenyl)-2-oxo-1,2-dihydropyridine-3-carboxamide], the half-inhibitory concentration (IC50) at TRKA kinase is under 50 nM; on MER kinase it was at most 50 nM; at VEGFR-2 kinase it was 50 to 500 nM.

Regarding `CCOc1ccn(-c2ccc(F)cc2)c(=O)c1C(=O)Nc1ccc(Oc2ccnc3cc(OCCCN4CCOCC4)c4c(c23)OCCO4)cc1Cl` [Example 73, N-(2-chloro-4-((5-(3-morpholinopropoxy)-2,3-dihydro-[1,4]dioxino[2,3-f]quinolin-10-yl)oxy)phenyl)-4-ethoxy-1-(4-fluorophenyl)-2-oxo-1,2-dihydropyridine-3-carboxamide], the results for the half-inhibitory concentration (IC50) at TRKA kinase, on MER kinase and at VEGFR-2 kinase were under 50 nM, at most 50 nM and 50 to 500 nM, respectively.

For `CCOc1ccn(-c2ccc(F)cc2)c(=O)c1C(=O)Nc1ccc(Oc2ccnc3cc(OCCCN4CCN(C)CC4)c4c(c23)OCCO4)c(F)c1` [Example 49, N-(3-fluoro-4-((5-(3-(4-methylpiperazin-1-yl)propoxy)-2,3-dihydro-[1,4]dioxino[2,3-f]quinolin-10-yl)oxy)phenyl)-1-(4-fluorophenyl)-4-ethoxy-2-oxo-1,2-dihydropyridine-3-carboxamide], the concentration for half-maximal inhibition (IC50) on TRKA kinase is under 50 nM; at MER kinase, at most 50 nM; at VEGFR-2 kinase, at most 50 nM.

For `CCOc1ccn(-c2ccc(F)cc2)c(=O)c1C(=O)Nc1ccc(Oc2ccnc3cc(OCCCN4CCOCC4)c4c(c23)OCCO4)c(Cl)c1` [Example 72, N-(4-((5-(3-morpholinopropoxy)-2,3-dihydro-[1,4]dioxino[2,3-f]quinolin-10-yl)oxy)-3-chlorophenyl)-4-ethoxy-1-(4-fluorophenyl)-2-oxo-1,2-dihydropyridine-3-carboxamide], the IC50 was under 50 nM against TRKA kinase, at most 50 nM at MER kinase and at most 50 nM on VEGFR-2 kinase.

As for `Cn1cc(C(=O)Nc2ccc(Oc3ccnc4cc(OC5CCOCC5)c5c(c34)OCCO5)c(F)c2)c(=O)n(-c2ccc(F)cc2)c1=O` [Example 91, N-(3-fluoro-4-((5-((tetrahydropyran-4-yl)oxy)-2,3-dihydro-[1,4]dioxino[2,3-f]quinolin-10-yl)oxy)phenyl)-3-(4-fluorophenyl)-1-methyl-2,4-dioxo-1,2,3,4-tetrahydropyrimidine-5-carboxamide], the 50% inhibitory concentration (IC50) against TRKA kinase is under 50 nM; at MER kinase, at most 50 nM; on VEGFR-2 kinase, 50 to 500 nM.

Turning to `CCOc1ccn(-c2ccc(F)cc2)c(=O)c1C(=O)Nc1ccc(Oc2ccnc3cc(OCC4CC4)c4c(c23)OCCO4)c(F)c1` [Example 59, N-(4-((5-(cyclopropylmethoxy)-2,3-dihydro-[1,4]dioxino[2,3-f]quinolin-10-yl)oxy)-3-fluorophenyl)-4-ethoxy-1-(4-fluorophenyl)-2-oxo-1,2-dihydropyridine-3-carboxamide], the half-inhibitory concentration (IC50) on TRKA kinase is 50 to 500 nM; at MER kinase it was at most 50 nM; at VEGFR-2 kinase it was at most 50 nM.

By IC50 is commonly meant the point on the concentration scale where inhibition reaches its midpoint.
